Tests used:
TNF-α production = test: In-Vitro Whole Cell Assay for TNF-α Inhibition (LPS-stimulated PBMC, ELISA); format: cell-based; conditions: LPS overnight, TNF-α by ELISA
Method: B. In-Vitro Whole Cell Assay for TNF-α Inhibition
Freshly obtained venous blood was anticoagulated with heparin, diluted with an equal volume of phosphate buffered saline (“PBS”) and placed in a sterile tube or other container. Aliquots (30 mL) of this mixture were transferred to centrifuge tubes which were underlaid with Ficoll-Hypaque (15 mL). The prepared tubes were centrifuged at 400×g, without braking, for 30 min at room temperature. Approximately ½ to ⅔ of the platelet layer above the mononuclear cell band was removed with a pipette. The majority of the mononuclear cell layer was carefully removed using a pipette and these PBMC's were diluted with PBS and spun at 600×g for 15 min. The resulting PBMC's were washed with another portion of PBS and spun at 400×g for 10 min at room temperature. The recovered pellets were diluted in low endotoxin RPMI/1% FCS culture medium, and gave a cell concentration of 0.5-2.0×10^6 PMBC/mL. A small volume of the suspension was removed for counting on a hemocytometer and the remaining preparation was centrifuged at 200×g for 15 min at room temperature. The recovered pelleted PMBC's were resuspended in RPMI/1% FCS to a concentration of 1.67×10^6/mL.
To run the assay, the PBMC suspension (180 μL) was transferred to duplicate wells of a 96-well flat-bottom microtiter plate and incubated for 1 h at 37° C. A solution of test compound (10 μL: prepared at 20× the desired final concentration) was added to each well and the plate was incubated for 1 h at 37° C. A solution (10 μL) of LPS in RPMI/1% FCS (200 ng/mL) was added and the wells were incubated overnight at 37° C. The supernate (100 μL) was removed from each well and diluted with RPMI/1% FCS (400 μL). The samples were analyzed for TNF-α using a commercial ELISA kit (Genzyme).
The compounds were tested for their ability to inhibit TNF-α production. The IC50 nM results are listed for the indicated compounds.

[1] = target: T1, purified recombinant p38 (6×His-p38 expressed in E.coli) (Homo sapiens, UniProt Q16539); test: p38 Inhibition In-Vitro Enzyme Assay; format: biochemical; conditions: myelin basic protein substrate, 33P-ATP; for inhibition at 10 µM: read-out: % p38 inhib @ 10 μM
T1 construct: 6xHis; made in house; host or cells: E. coli
T1 sequence (Q16539 whole entry): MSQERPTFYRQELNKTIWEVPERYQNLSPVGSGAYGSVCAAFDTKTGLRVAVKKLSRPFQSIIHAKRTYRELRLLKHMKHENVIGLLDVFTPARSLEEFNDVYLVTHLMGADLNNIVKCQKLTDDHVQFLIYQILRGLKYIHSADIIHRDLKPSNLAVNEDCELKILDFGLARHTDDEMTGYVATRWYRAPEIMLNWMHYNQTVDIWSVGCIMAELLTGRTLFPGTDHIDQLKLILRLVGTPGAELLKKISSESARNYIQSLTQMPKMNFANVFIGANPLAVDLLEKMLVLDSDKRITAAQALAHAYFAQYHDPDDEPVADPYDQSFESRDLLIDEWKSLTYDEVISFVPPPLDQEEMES
Method: A. p38 Inhibition In-Vitro Enzyme Assay
A solution (38 μL) of purified recombinant p38 (6×His-p38 expressed in E.coli), myelin basic protein substrate (determined empirically), and a buffer of pH 7.5 (Hepes:25 mM, MgCl2:10 mM, MnCl2:10 mM) were added to 92 wells of a 96-well round bottom polypropylene plate. The amount of enzyme was determined empirically based on the linear range of the assay and the acceptable signal to noise ratio. The remaining wells were used for control “CTRL”) and background (“BKG”). The CTRL was prepared with the enzyme, substrate buffer and 2% DMSO, and the BKG was prepared with substrate buffer and 2% DMSO.
A solution (12 μL) of the test compound in DMSO was added to the testing wells. […] The ATP/^33P-ATP solution (10 μL containing 50 μM unlabeled ATP and 1 μCi ^33P-ATP) was added to all wells and the completed plates were mixed and incubated at 30° C. for 30 min. Ice-cold 50% TCA/10 mM sodium phosphate (60 μL) was added to each well and the plates were kept on ice for 15 min. The contents of each well were transferred to the wells of a 96-well filterplate (Millipore, MultiScreen-DP) and the filterplate was placed on a vacuum manifold fitted with a waste collection tray. The wells were washed five times with 10% TCA/10 mM sodium phosphate (200 μL) under vacuum. MicroScint-20 scintillant was added, and the plates were sealed using Topseal-S sheets and counted in a Packard TopCount scintillation counter using a ^33P liquid program with color quench correction, where the output is in color quench-corrected cpm. The % inhibition of each test compound as shown in Table 2 was calculated by the following formula: % inhibition=[1−(sample−BKG)/(CTRL−BKG)]×100.
[…] In addition, the IC50 was calculated for some compounds using the Deltagraph 4-parameter curve-fitting program.

[2] = system: LPS-induced TNF-α production; test: In Vivo Rodent Assay for Inhibition of TNF-α Production (mice); set-up: species or system Mice (BALB/cJ females); conditions: oral dosing, LPS 1 mg/kg i.p., serum TNF-α
Method: C. In Vivo Rodent Assay for Inhibition of TNF-α Production
Mice (BALB/cJ females, Jackson Laboratories) or rats (Lewis males, Charles River) were fasted for 30 min prior to oral dosing with 5-10 mL/kg of test compound at 5-50 mg/kg. Thirty minutes after dosing, the animals were injected intraperitoneally with LPS at 1 mg/kg and returned to their cages for 1 h. Animals were anesthetized by CO2, exsanguinated by cardiac puncture and whole blood collected (0.1-0.7 mL). The blood was allowed to clot and serum was transferred to a centrifuge tube. This sample was centrifuged, and serum was collected, aliquoted and frozen at −80° C. Samples were tested by commercial ELISA's for TNF-α (Endogen for mouse TNF-α and Biosource for rat TNF-α).

Compound | IC50 (TNF-α production) | inhibition at 10 µM [1] | inhibition in vivo at 10 mg/kg ([2]; Mus musculus, 1 h) | inhibition in vivo at 25 mg/kg ([2]; Mus musculus, 1 h, 25 mg/kg) | % p38 inhib @ 10 μM [1] | TNF-α % Inhibition Mouse ([2]; 25 mg/kg)
Fc1ccc(-c2c[nH]c(CCCc3ccccc3)c2-c2ccncc2)cc1 [compound 28, 4-(4-Fluorophenyl)-2-(3-phenylpropyl)-3-(4-pyridyl)pyrrole] | 3.5 nM | 49% | 10% | 10% | – | –
O=[N+]([O-])c1ccc(-n2cc(-c3ccncc3)c(-c3ccc(F)cc3)c2)cc1 [compound 30] | 2 nM | – | – | – | 70% | 53%
O=[N+]([O-])c1ccc(-n2cc(-c3ccc(F)cc3)c(-c3ccncc3)c2CCCc2ccccc2)cc1 [compound 31, 4-(4-Fluorophenyl)-1-(4-nitrophenyl)-2-(3-phenylpropyl)-3-(4-pyridyl)pyrrole] | 15 nM | 67% | 47% | – | – | –
CC(=O)Nc1ccc(-n2cc(-c3ccc(F)cc3)c(-c3ccncc3)c2CCCc2ccccc2)cc1 [compound 32, 1-(4-Acetoaminophenyl)-4-(4-fluorophenyl)-2-(3-phenylpropyl)-3-(4-pyridyl)pyrrole] | 5 nM | 38% | 48% | – | – | –

— patent publication US6562843B1, “Substituted 3-pyridyl-4-arylpyrroles, and related therapeutic and prophylactic methods” (Ortho-McNeil Pharmaceutical, Inc., priority 1999, dated 2003)
